Experimental data published in article PMC4559964, “Cytotoxicity of selected Cameroonian medicinal plants and Nauclea pobeguinii towards multi-factorial drug-resistant cancer cells” (BMC Complementary and Alternative Medicine, 2015).
Read-outs that look alike come from different tables or passages of the source.

Legend:
[1] = system: drug-sensitive leukemia CCRF-CEM cells; assay: Resazurin reduction assay, cytotoxicity on CCRF-CEM; assay type: cell-based; conditions: Homo sapiens, 72 h, read-out: IC50 values of compounds / doxorubicin
Method: (§1) The cell lines used in the present work, their origins and their treatments were previously reported. They include drug-sensitive leukemia CCRF-CEM cells, its multidrug-resistant subline CEM/ADR5000 cells, breast cancer MDA-MB-231-pcDNA3 cells, its resistant subline MDA-MB-231-BCRP clone 23) cells, colon HCT116 (p53^+/+) cancer cells, its knockout clones HCT116 (p53^−/−), glioblastoma U87MG cells, its resistant subline U87MG.ΔEGFR cells and normal AML12 hepatocytes. […] Breast cancer cells, transduced with control vector (MDA-MB-231-pcDNA3) or with cDNA for the breast cancer resistance protein BCRP (MDA-MB-231-BCRP clone 23), were maintained under standard conditions as described above for CCRF-CEM cells. Human wild-type HCT116 (p53^+/+) colon cancer cells as well as knockout clones HCT116 (p53^−/−) derived by homologous recombination were a generous gift from Dr. B. Vogelstein and H. Hermeking (Howard Hughes Medical Institute, Baltimore, MD). Human glioblastoma multiforme U87MG cells (non-transduced) and U87MG cell line transduced with an expression vector harboring an epidermal growth factor receptor (EGFR) gene with a genomic deletion of exons 2 through 7 (U87MG.ΔEGFR) were kindly provided by Dr. W. K. Cavenee (Ludwig Institute for Cancer Research, San Diego, CA). MDA-MB-231-BCRP, U87MG.ΔEGFR and HCT116 (p53^−/−) were maintained in DMEM medium containing 10 % FBS (Invitrogen) and 1 % penicillin (100 U/mL)-streptomycin (100 μg/mL) (Invitrogen) and were continuously treated with 800 ng/mL and 400 μg/mL geneticin, respectively. Normal AML12 heptocytes were obtained from the American Type Culture Collection (ATCC, USA). The above medium without geneticin was used to maintain MDA-MB-231, U87MG, HCT116 (p53^+/+) and AML12 cell lines. The cells were passaged twice weekly. All experiments were performed with cells in the logarithmic growth phase.
(§2) The cytotoxicity of the tested samples was performed by resazurin reduction assay as we previously described. Briefly, adherent cells at 1 × 10^4 cells were allowed to attach overnight and were then treated with different concentrations of the studied samples. For suspension cells, aliquots of 2 × 10^4 cells per well were seeded in 96-well-plates in a final volume of 200 μL. […] After 72 h incubation and resazurin (Sigma-Aldrich, Schnelldorf, Germany) staining, fluorescence was measured on an Infinite M2000 Pro™ plate reader (Tecan, Crailsheim, Germany) using an excitation wavelength of 544 nm and an emission wavelength of 590 nm. Each assay was done at least two times, with six replicates each. IC50 values represent the sample concentration required to inhibit 50 % of cell proliferation and were calculated from a calibration curve by linear regression using Microsoft Excel.

[2] = system: multidrug-resistant leukemia CEM/ADR5000 cells; assay: Resazurin reduction assay, cytotoxicity on CEM/ADR5000; assay type: cell-based; conditions: for IC50: Homo sapiens, read-out: IC50 values of compounds / doxorubicin; for degree of resistance: ratio IC50 CEM/ADR5000 / IC50 CCRF-CEM
Method: as §1, §2

[3] = system: breast cancer MDA-MB-231-pcDNA3 cells; assay: Resazurin reduction assay, cytotoxicity on MDA-MB231; assay type: cell-based; conditions: read-out: IC50 values of compounds / doxorubicin
Method: as §1, §2

[4] = system: MDA-MB-231-BCRP clone 23 cells; assay: Resazurin reduction assay, cytotoxicity on MDA-MB231/BCRP; assay type: cell-based; conditions: for IC50: MDA-MB-231/BCRP, 72 h, mean ± SD; for degree of resistance: ratio IC50 MDA-MB231/BCRP / IC50 MDA-MB231
Method: (§3) The cell lines used in the present work, their origins and their treatments were previously reported. […] Human wild-type HCT116 (p53^+/+) colon cancer cells as well as knockout clones HCT116 (p53^-/-) derived by homologous recombination were a generous gift from Dr. B. […] (Howard Hughes Medical Institute, Baltimore, MD). Human glioblastoma multiforme U87MG cells (non-transduced) and U87MG cell line transduced with an expression vector harboring an epidermal growth factor receptor (EGFR) gene with a genomic deletion of exons 2 through 7 (U87MG.ΔEGFR) were kindly provided by Dr. W. K. Cavenee (Ludwig Institute for Cancer Research, San Diego, CA). MDA-MB-231-BCRP, U87MG.ΔEGFR and HCT116 (p53^-/-) were maintained in DMEM medium containing 10 % FBS (Invitrogen) and 1 % penicillin (100 U/mL)-streptomycin (100 μg/mL) (Invitrogen) and were continuously treated with 800 ng/mL and 400 μg/mL geneticin, respectively. Normal AML12 heptocytes were obtained from the American Type Culture Collection (ATCC, USA). The above medium without geneticin was used to maintain MDA-MB-231, U87MG, HCT116 (p53^+/+) and AML12 cell lines. The cells were passaged twice weekly. All experiments were performed with cells in the logarithmic growth phase. […] Briefly, adherent cells at 1 × 10^4 cells were allowed to attach overnight and were then treated with different concentrations of the studied samples. For suspension cells, aliquots of 2 × 10^4 cells per well were seeded in 96-well-plates in a final volume of 200 μL. […] After 72 h incubation and resazurin (Sigma-Aldrich, Schnelldorf, Germany) staining, fluorescence was measured on an Infinite […]TM plate reader (Tecan, Crailsheim, Germany) using an excitation wavelength of 544 nm and an emission wavelength of 590 nm. Each assay was done at least two times, with six replicates each.

[5] = system: HCT116 (p53+/+) colon cancer cells; assay: Resazurin reduction assay, cytotoxicity on HCT116 (p53+/+); assay type: cell-based; conditions: Homo sapiens, read-out: IC50 values of compounds / doxorubicin
Method: as §1, §2

[6] = system: HCT116 (p53−/−) colon cancer cells; assay: Resazurin reduction assay, cytotoxicity on HCT116 (p53-/-); assay type: cell-based, human; conditions: for IC50: Homo sapiens, read-out: IC50 values of compounds / doxorubicin; for degree of resistance: ratio IC50 HCT116 (p53−/−) / IC50 HCT116 (p53+/+)
Method: as §3

[7] = system: glioblastoma multiforme U87MG cells; assay: Resazurin reduction assay, cytotoxicity on U87MG; assay type: cell-based; conditions: Homo sapiens, U-87 MG, 72 h, read-out: IC50 values of compounds / doxorubicin
Method: as §1, §2

U87MG.ΔEGFR cells = assay: Resazurin reduction assay, cytotoxicity on U87MG.ΔEGFR; assay type: cell-based, human; conditions: for IC50: Homo sapiens, 72 h, read-out: IC50 values of compounds / doxorubicin; for degree of resistance: ratio IC50 U87MG.ΔEGFR / IC50 U87MG
Method: as §1, §2

normal AML12 hepatocytes = assay: Resazurin reduction assay, cytotoxicity on normal AML12 hepatocytes; assay type: cell-based; conditions: Mus musculus, read-out: IC50 values of compounds / doxorubicin
Method: as §1, §2

[8] = system: eight tested cancer cell lines; assay: Resazurin reduction assay, summary over the panel of tested cell lines; assay type: cell-based
Method: as §1, §2

leukemia CCRF-CEM cells = assay: Preliminary cytotoxicity study at a single concentration on CCRF-CEM; assay type: cell-based; conditions: doxorubicin 10 μM, positive control
Method: Briefly, adherent cells at 1 × 10^4 cells were allowed to attach overnight and were then treated with different concentrations of the studied samples. For suspension cells, aliquots of 2 × 10^4 cells per well were seeded in 96-well-plates in a final volume of 200 μL. […] Each assay was done at least two times, with six replicates each.

[9] = Homo sapiens, MDA-MB-231, 72 h, MDA-MB231, 72 h, mean ± SD
[10] = MDA-MB231/BCRP, read-out: IC50 values of compounds / doxorubicin
[11] = HCT-116, HCT116 (p53+/+), 72 h, mean ± SD
[12] = HCT-116, HCT116 (p53−/−), 72 h, mean ± SD
[13] = all eight tested cancer cell lines, read-out: IC50 over all tested cell lines
[14] = read-out: IC50 values of compounds / doxorubicin, MDA-MB231/BCRP

Row | SMILES | IC50 ([1]; mean ± SD) | IC50 ([2]; CEM/ADR5000, 72 h, mean ± SD) | IC50 [3, 9] | IC50 [4, 10] | IC50 [5, 11] | IC50 [6, 12] | IC50 ([7]; U87MG, mean ± SD) | IC50 (U87MG.ΔEGFR cells; U87MG.ΔEGFR, mean ± SD) | IC50 (normal AML12 hepatocytes; AML12 normal hepatocytes, 72 h) | IC50 [8, 13] | degree of resistance [2] | degree of resistance [6] | degree of resistance (U87MG.ΔEGFR cells) | degree of resistance [4] | also measured
1 | CC(=O)O[C@H]1CC[C@]2(C)[C@H]3C(=O)C=C4[C@@H]5[C@@H](C)[C@H](C)CC[C@]5(C)CC[C@@]4(C)[C@]3(C)CC[C@H]2C1(C)C [Compound 1, 3-acetoxy-11-oxo-urs-12-ene] | > 82.9 µM | > 82.9 µM | > 82.9 µM | > 82.9 µM | > 82.9 µM | > 82.9 µM | > 82.9 µM | > 82.9 µM | > 82.9 µM | > 82.9 µM |  |  |  |  | 
2 | O=C(O)/C=C/c1ccc(O)cc1 [Compound 2, p-coumaric acid] | > 244 µM | > 244 µM | > 244 µM |  | > 244 µM | > 244 µM | > 244 µM | > 244 µM | > 244 µM | > 244 µM |  |  |  |  | IC50 [4, 14]: > 244 µM
3 | COC(=O)CC(O)(CC(=O)OC)C(=O)OC [Compound 3, citric acid trimethyl ester] | > 171 µM | > 171 µM | > 171 µM | > 171 µM | > 171 µM | > 171 µM | > 171 µM | > 171 µM | > 171 µM | > 171 µM |  |  |  |  | 
4 | Oc1ccc(/C=C/c2cc(O)cc(O)c2)cc1 [Compound 4, resveratrol] | 28.2 ± 1.32 µM | 57.4 ± 3.67 µM | < 23 µM |  | 73.7 ± 5.67 µM | > 175 µM | 76.6 ± 4.92 µM | 28.4 ± 2.06 µM | > 175 µM |  | 2.04 | > 2.38 | 0.37 |  | IC50 ([3]; MDA-MB231, 72 h, mean ± SD): 19.9 ± 1.45 µM; IC50 ([8]; seven out of eight cell lines, read-out: IC50): < 175 µM
5 | OC[C@H]1O[C@@H](Oc2cc(O)cc(/C=C/c3ccc(O)cc3)c2)[C@H](O)[C@@H](O)[C@@H]1O [Compound 5, resveratrol β-D-glucopyranoside] | 25.1 ± 2.48 µM | 39.9 ± 2.91 µM | 97.6 ± 7.6 µM |  | 63.8 ± 4.61 µM | 47 ± 4.94 µM | 55.6 ± 3.73 µM | 47.6 ± 3.29 µM | > 103 µM | < 100 µM | 1.59 | 0.74 | 0.86 | 0.98 | IC50 [4, 14]: 95.6 ± 8.17 µM
6 | C=C[C@H]1[C@H](O[C@@H]2O[C@H](CO)[C@@H](O)[C@H](O)[C@H]2O)OC=C2C(=O)N3CCc4c([nH]c5ccccc45)[C@@H]3C[C@H]21 [Compound 6, strictosamide] |  |  |  | 78.3 ± 6.22 µM |  |  |  |  |  |  | > 1.04 |  |  | < 0.97 | IC50 [1]: 77.1 ± 5.87 µM; IC50 ([2]; ADR5000, 72 h): > 80.3 µM; IC50 ([3]; Homo sapiens, MDA-MB-231, 72 h): > 80.3 µM; IC50 ([5]; HCT-116, 72 h): > 80.3 µM; IC50 ([6]; HCT-116, 72 h): > 80.3 µM; IC50 [7]: > 80.3 µM; IC50 (U87MG.ΔEGFR cells): > 80.3 µM; IC50 (normal AML12 hepatocytes; AML12, 72 h): > 80.3 µM; IC50 ([8]; read-out: IC50): < 80.3 µM
7 | COc1cccc2c1C(=O)c1c(O)c3c(c(O)c1C2=O)C[C@@](O)(C(=O)CO)C[C@@H]3O[C@H]1C[C@H](N)[C@H](O)[C@H](C)O1 [doxorubicin, Doxorubicin, reference compound] | 0.2 ± 0.06 µM |  |  |  |  |  | 1.06 ± 0.15 µM | 6.11 ± 0.57 µM | > 73.6 µM |  | 975.60 | 2.88 | 5.76 | 7.12 | IC50 ([3]; Homo sapiens, MDA-MB-231, MDA-MB231, 72 h, mean ± SD): 1.1 ± 0.28 µM; IC50 ([5]; HCT-116, 72 h): 1.41 ± 0.29 µM; IC50 ([6]; HCT-116, 72 h): 4.06 ± 0.07 µM; Growth percentage of CCRF-CEM leukemia cells (leukemia CCRF-CEM cells): 13.6%
